From publication PMC10056986 (Pharmaceuticals, 2023)

How the values were obtained:
[1] = tested on: Baloxavir-resistant influenza A/PR/8/34 (H1N1) (PA I38T); format: cell-based, Influenza A virus; details: read-out: EC50 (mean ± SD)
[2] = tested on: influenza A virus with PA I38T substitution; details: cited from earlier work
[3] = tested on: Oseltamivir-resistant influenza virus strain A/Weiss/43 (H1N1)-4; assay: microbe, parasite or virus in culture; format: cell-based; details: unidentified influenza virus, H1N1, MDCK, read-out: EC50 (mean ± SD)
[4] = tested on: Oseltamivir-resistant influenza virus strain A/Weiss/43 (H1N1)-5; assay: microbe, parasite or virus in culture; format: cell-based; details: unidentified influenza virus, H1N1, MDCK, read-out: EC50 (mean ± SD)

Compound | EC50 [1] [nM] | EC50 change due to PA I38T substitution [2] | EC50 [3] [nM] | EC50 [4] [nM]
O=C1c2c(O)c(=O)ccn2N([C@@H]2c3ccccc3SCc3c2ccc(F)c3F)[C@@H]2COCCN12 [Baloxavir] | 89.4 ± 11.9 | 30-50 fold |  | 
CCOC(=O)C1=C[C@@H](OC(CC)CC)[C@H](NC(C)=O)[C@@H](N)C1 [Oseltamivir] |  |  | > 100000 | > 100000
O=C(O)[C@H]1C2CCC(CC2)[C@@H]1Nc1nc(-c2c[nH]c3ncc(F)cc23)ncc1F [VX-787, reference compound] | 0.434 ± 0.052 |  | 0.234 ± 0.094 | 0.216 ± 0.053
O=C(O)[C@H]1C2CCC(CC2)[C@@H]1Nc1nc(-c2n[nH]c3ncc(F)cc23)nc(C2CC2)c1F [ZSP1273] | 0.028 ± 0.013 |  | 0.014 ± 0.006 | 0.017 ± 0.004
